Consider one compound from US8618114B2 (priority 2008, dated 2013).

For assay [1], the target named is T1, 5-HT6 receptor (Homo sapiens (Human), UniProt P50406). Nature of the assay: competitive radioligand binding ([3H] Lysergic acid diethylamide) to serotonin 5-HT6 receptors, HeLa cell membranes. As to conditions: read-out: IC50, competitive assay of serotonin 5-HT6 receptor inhibition; displacement of 1.5 nM [3H] Lysergic acid diethylamide, 120 min at 37° C.
Protocol: Determination of activity of the compounds of the general formula 1 in the setting of competitive binding to serotonin 5-HT6 receptors.
Screening of the disclosed compounds for their potential ability to interact with serotonin 5-HT6 receptors was carried out by method of radioligand binding. For this purpose membrane species were prepared from expressing recombinant human 5-HT6 receptors HeLa cells by means of their homogenization in glass homogenizer with subsequent separation of plasmatic membranes from cell nucli, mitochondria's and cell wreckages by differential centrifugation. Determination of tested compounds binding to 5-HT6 receptors was carried out according to the method described in [Monsma F J Jr, Shen Y, Ward R P, Hamblin M W and Sibley D R, Cloning and expression of a novel serotonin receptor with high affinity for tricyclic psychotropic drugs. […] After incubation the samples were filtered in vacuo on glass-microfiber filters G/F (Millipor, USA), filters were washed three times with cold solution of the medium and radioactivity was measured by scintillation counter MicroBeta 340 (PerkinElmer, USA). Nonspecific binding which made up 30% of overall binding was determined by incubation of membrane preparations with radioligand in the presence of 5 μM Serotonin (5-HT). Methiothepin was used as positive control. Binding of the tested compounds to the receptor was determined by their ability to displace the radioligand and expressed in percent of displacement. The percent of displacement was calculated according to the following equation:
[formula] wherein: TA—was overall radioactivity in the presence of radioligand only, CA—was radioactivity in the presence of radioligand and tested compound and NA—was radioactivity in the presence of radioligand and Serotonin (5 μM).
The subject of assay [2] is male mice of BALB/c line. Nature of the assay: Porsolt's Forced Swim Test. It counts as in vivo, mouse. The settings on record: i.p. for 4 days subchronically; FIG. 18. The method, then:
17.1. Mice Behavior in Porsolt's Forced Swim Test. Expression of behavioral despair was offered to use as a model for investigation of antidepressant activity in Porsolt's test (1977, 1978). That is, the behavior of a mouse or rat in a closed basin, from which the animal can not get out, cheracterizes the level of its despair which could be reduced by means of antidepressant intake.
Male mice of BALB/c line weighing about 20-30 g were used in the test. The animals were placed for 15 minutes in the basin (of 300 mm height, 480 mm diameter) filled with water to 70% of its volume at 25° C. In 3-5 minutes swimming activity began to decrease and change by phases of movement and immobility. […] Data for the last 5 minutes of the test were taken for the analysis. Automated computerized detection of motion with videosystem and Any-maze program were used in the test. The tested compounds 1.2.7(1) and 1.2.22(18) were injected intraperitonelly for 4 days subchronically.

Another assay deals with male rats. Nature of the assay: Passive avoidance in the shuttle chamber, Scopolamine amnesia model, rats. It counts as in vivo, rat. The settings on record: compounds injected 60 minutes before the test, read 24 hours after training, FIG. 1-3. The method, then: 14.1.1. Passive Avoidance of mice in the Shuttle Chamber. The experiments were carried out in aged male mice of BALB/c line weighing 20-24 g or male rats weighing 200-250 g.
A shuttle chamber (Ugo Basile, Italy) that consisted of two sections was used. One section was white and lightened, the other one was dark. The sections were connected through a hole which could be overlapped by automatic vertical door. The floor of the dark section was made of transverse metal bars on which DC current impulses could be fed.
On the first day of testing 30 minutes before training the animals were injected intraperitoneally with Scopolamine which causes disturbance of training (memory loss). The animals of the trial group were additionally administered with one of the tested compounds. The animals of the control group were injected with physiological solution. Each group consisted of 8 animals. The animals were placed in the light section, and latent period of the first entry into the dark chamber was registered. Then vertical door was closed and the animal was punished by 0.6 mA DC current for 3 seconds. After that the animal was taken back to its home cage. […]

The next assay relates to Mice of SHK line. As to the kind of experiment: Prepulse inhibition of the startle response in mice (Apomorphine model). In kind it is in vivo, mouse. As to conditions: 1 mg/kg i.p. 60 minutes before the test; FIG. 17. The method, then: Mice of SHK line weighing about 24-30 g were used in the test. The experiments were carried out during the light period of animal's diurnal. Apomorphine hydrochloride and Haloperidol were received from Sigma Chemicals Company, (USA). Apomorphine hydrochloride was dissolved in 0.1% solution of ascorbic acid prepared with sterilized water; it was introduced subcutaneously 15 minutes before the test. Haloperidol was dissolved in sterilized water using emulsifier Twin 80, it was introduced intraperitoneally 60 minutes before the test. Compounds 1.2.22(1), 1.2.22(18), 1.2.7(1) were dissolved in sterilized water and introduced intraperitoneally 60 minutes before the test. The injection volume was 10 ml/kg. 0.1%. Solution of ascorbic acid, prepared with sterilized water and Twin 80, was injected to control group of animals.
The test instrument consisted of a chamber made of transparent plexiglass (manufacturer—Columbia Instruments Company, USA) and placed on the platform; the latter was lodged inside the sound insulating chamber. A high frequency sound column transmitting acoustic stimuluses was located 2 cm away from the platform. […] The level of background noise made up 65 dB. Each animal received 4 stimuli of single testing (pulse) stimulus of 50 ms duration and 105 dB or prepulsory stimulus (pre-pulse) of 20 ms duration and 85 dB, after which in 30 ms pulse stimulus of 50 ms duration and 105 dB followed. Time interval between repeated pulse or prepulse in combination with pulse stimuli made up 10 s. Inhibition of the startle in reply to prepulse-plus-pulse stimulus was calculated in percentage towards amplitude of startle in response to isolated pulse stimulus.

The next assay deals with rats. As to the kind of experiment: Passive avoidance in the shuttle chamber, amnesia caused by MK-801, rats. In kind it is in vivo, rat. As to conditions: MK-801 0.1 mg/kg i.p., compounds injected 60 minutes before the test, FIG. 8-10.
For assay [3], the target named is T1, 5-HT6 receptor. Nature of the assay: functional assay for serotonin 5-HT6 receptor inhibition (serotonin-induced intracellular cAMP, LANCE cAMP kit, HEK 293 cells). It counts as cell-based. As to conditions: HEK 293 cells with expressed 5-HT6 receptor; reduction of serotonin-induced intracellular cAMP.
Assay [4] relates to male mice of BALB/c line. Nature of the assay: Tail suspension test. As to conditions: i.p. during 4 days; FIG. 19. In kind it is in vivo, mouse. An excerpt: 17.2. Mice behavior in tail suspension test. Tail suspension test was described by Steri et al. (1985) as a convenient method for investigation of potential antidepressants. It is supposed that forced immobility in rodents could be used as a model for investigation of depressive disorders at humans. Clinically effective antidepressants lower mice immobility which follows negative attempts to become free when their tails are fixed.
Male mice of BALB/c line weighing about 20-30 g were used in the test. The animals were suspended by tail with a sticky tape on the holder over a horizontal surface at a height of about 40 cm, and the total duration of complete immobility episodes was registered in the course of 3 minutes. […] Automated computerized detection of motion with videosystem and Any-maze program were used in the test. The tested compounds 1.2.7(1) and 1.2.22(18) were administered intraperitoneally during 4 days. Reference substances (Fluoxetine, Desipramine) were injected intraperitoneally 15 minutes before the beginning of the test.

The subject of the next assay is male mice of SHK line. Nature of the assay: Novel object recognition test, Scopolamine amnesia model. In kind it is in vivo, mouse. As to conditions: Scopolamine 1 mg/kg i.p.; compounds i.p. 60 minutes before training; FIG. 7. The method, then:
14.1.2. Novel object recognition test. The test was carried out in aged male mice of SHK line. […] A mouse was placed into the central chamber and allowed to explore the maze. The floor was cleaned after each animal. The sequence of chamber entries and duration of visits were registered by the observer. The test was ended after 13 entries into the dead-end chambers. Criterion for entry was a location of all animal's paws inside the chamber at the same time.
During the training the animal was placed in the maze with one equiform bowl in each side chamber. In the course of testing (one hour after training) two opposite standing bowls were replaced by identical flasks, and the animal was allowed to explore the maze. The time spent by the animal in each side chamber was registered during the periods of training and testing. Index of novel object recognition was calculated as the ratio of time spent by the animal in the side chambers with novel objects to the total time spent by it in all side chambers.

Structures are written as SMILES.

T1 sequence (P50406 whole entry): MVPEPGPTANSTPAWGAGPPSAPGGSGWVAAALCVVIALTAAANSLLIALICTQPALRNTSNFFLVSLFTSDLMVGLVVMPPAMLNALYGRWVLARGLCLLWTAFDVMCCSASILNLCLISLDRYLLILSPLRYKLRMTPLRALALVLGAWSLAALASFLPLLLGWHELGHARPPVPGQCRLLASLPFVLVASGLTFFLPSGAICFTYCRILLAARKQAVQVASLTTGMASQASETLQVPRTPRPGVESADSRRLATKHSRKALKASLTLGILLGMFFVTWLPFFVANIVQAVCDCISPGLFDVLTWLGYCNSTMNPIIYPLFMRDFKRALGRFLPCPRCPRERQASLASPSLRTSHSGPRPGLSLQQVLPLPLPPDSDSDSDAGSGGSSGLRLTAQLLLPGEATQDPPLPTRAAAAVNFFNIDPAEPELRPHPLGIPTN

Consider `CNc1nn2c(C)cc(CO)nc2c1S(=O)(=O)c1ccccc1` [1.2.7(1), 5-(hydroxymethyl)-7-methyl-2-methylamino-3-phenylsulfonyl-pyrazolo[1,5-a]pyrimidine], for which the IC50 was 0.88 nM at 5-HT6 receptor [1] and 19 nM at 5-HT6 receptor [3]. The “antidepressant activity, immobility during the final 5 minutes in Porsolt's test” value with male mice of BALB/c line [2] is listed as “exhibits antidepressant activity”. The “effect on amnesia caused by Scopolamine (latent period, light arm stay, dark arm entries)” value in the assay on male rats is given as “decrease amnesia”. Moreover, the “effect on Apomorphine-disturbed prepulse inhibition of startle” value with Mice of SHK line was “prevented disturbance of prepulse inhibition of startle caused by Apomorphine”. Also, the “effect on amnesia caused by MK-801 (latent period, light arm stay, dark arm entries)” value in the assay with rats is on record as “decrease amnesia caused by MK-801”. Further, the “antidepressant activity, immobility in tail suspension test” value in the assay with male mice of BALB/c line [4] was “antidepressant activity comparable with the activity of Fluoxetine and Desipramine”. The “prevention of Scopolamine-disturbed novel object recognition” value in the assay with male mice of SHK line is “prevent memory impairment caused by Scopolamine”.
